Series [1] addresses T1, 8-CN-FMN-OYE (Saccharomyces pastorianus, UniProt Q02899).
T1 construct: made in house; host or cells: Escherichia coli (plasmid pET-3b)
As to the kind of experiment: Oxidation of saturated carbonyl substrates by the catalyst with molecular oxygen (GC/MS). The format is biochemical. As for the experimental part:
Two ml of 10 mM solution of hydrocinnamaldehyde (C6 H5 --CH2 --CH2 --CHO) in 100 mM sodium pyrophosphate buffer, pH 8.5 was taken in a 5 ml test tube with a small magnetic stir bar at room temperature. The catalyst, as a concentrated solution in the same buffer, was added to the above solution so that final concentration of the catalyst is 10 μM. […]
When and wherever side reactions were observed due to hydrogen peroxide (which is produced during the oxidation), 5 μl of catalase (1 mg/ml) was added to the reaction mixture prior to the addition of the catalyst as a hydrogen peroxide scavenger.
The racemic 3-phenyl-butyraldehyde was subjected to typical oxidation reaction with the catalytic system of the present invention. […] It can be concluded, in analogy to the 3-Me-cyclopentanone reaction, that the oxidation of S-enantiomer only catalyzed by the catalyst leaving the R-enantiomer intact as hydrogen at the asymmetric center lies in unfavorable geometry. This reaction once again highlights the potential of the present catalytic system in resolving racemic carbonyl compounds.

Series [2] in a line: Redox potential of flavin cofactor. In kind it is physicochemical.
Series [3] deals with T2, Old Yellow Enzyme (Saccharomyces pastorianus, UniProt Q02899).
T2 construct: recombinant OYE I (pET-3b, E. coli) or enzyme isolated from brewer's bottom yeast (mix of close OYE isoforms)
T2 sequence (Q02899 2-400): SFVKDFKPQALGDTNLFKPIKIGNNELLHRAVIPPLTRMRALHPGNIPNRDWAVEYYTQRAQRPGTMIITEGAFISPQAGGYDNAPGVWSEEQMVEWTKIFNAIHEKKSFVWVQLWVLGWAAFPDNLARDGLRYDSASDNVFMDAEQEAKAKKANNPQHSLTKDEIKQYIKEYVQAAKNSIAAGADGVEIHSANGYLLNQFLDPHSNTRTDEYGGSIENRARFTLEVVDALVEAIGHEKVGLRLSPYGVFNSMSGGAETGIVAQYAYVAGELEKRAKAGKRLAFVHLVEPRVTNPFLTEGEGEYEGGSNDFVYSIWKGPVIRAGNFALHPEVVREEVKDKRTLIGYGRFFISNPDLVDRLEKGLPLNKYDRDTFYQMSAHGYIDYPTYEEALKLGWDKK
As to the kind of experiment: p-Cl-phenol binding to native Old Yellow Enzyme (charge transfer complex). Set-up: species or system Brewer's Bottom Yeast. As for the experimental part:
The apoprotein of Old Yellow Enzyme was prepared and reconstituted with 8-CN-8-demethyl-flavin mononucleotide as described above. […] Native enzyme binds p-Cl-phenol with a Kd of~1 μM and has a maximum of 645 nm for the charge transfer absorption band. The 115 nm blue shift thus falls in line with the 170 mV more positive potential compared to that of the native flavin.

T1 sequence (Q02899 whole entry): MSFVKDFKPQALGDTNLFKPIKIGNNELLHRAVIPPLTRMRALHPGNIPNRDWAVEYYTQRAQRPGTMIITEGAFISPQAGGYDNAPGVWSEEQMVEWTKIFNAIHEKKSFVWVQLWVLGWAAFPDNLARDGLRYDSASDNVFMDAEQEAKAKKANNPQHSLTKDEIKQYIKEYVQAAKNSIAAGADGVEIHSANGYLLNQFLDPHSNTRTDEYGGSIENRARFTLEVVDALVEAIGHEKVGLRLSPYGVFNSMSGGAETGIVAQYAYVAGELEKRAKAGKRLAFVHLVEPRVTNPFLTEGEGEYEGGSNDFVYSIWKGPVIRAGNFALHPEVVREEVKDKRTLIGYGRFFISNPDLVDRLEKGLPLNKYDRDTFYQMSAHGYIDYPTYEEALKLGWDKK

For `CC(CC=O)c1ccccc1` (racemic) [3-phenyl-butyraldehyde], the substrate reacted in series [1] (racemic substrate, 36 hours-48 hours, GC/MS) was ~ 50%.

Turning to `Cc1cc2nc3c(=O)[nH]c(=O)nc-3n(C[C@H](O)[C@H](O)[C@H](O)COP(=O)(O)O)c2cc1C#N` [8-CN-FMN, 8-CN-8-demethyl-flavin mononucleotide], the redox potential in series [2] was -38 mV. Further, in series [2] (difference versus FMN), the “redox potential positive to the native cofactor, FMN” value is given as “about 170 mV”.

Consider `O=CCCc1ccccc1` [hydrocinnamaldehyde], for which, in series [1] (10 mM substrate, 10 μM catalyst, pH 8.5, room temperature, 3 hours, GC/mass spectral analysis), the “conversion of the substrate to cinnamaldehyde” value is recorded as “complete conversion”.

In general, Kd refers to the constant that tells how readily two partners part at equilibrium. Low values mean tighter binding, high ones weaker binding. `Oc1ccc(Cl)cc1` [p-Cl-phenol] had a Kd in series [3] of approximately 1 µM.

Source of the values: patent US6046043A, “Method for the conversion of carbonyl compounds to their β-unsaturated derivatives using molecular oxygen as the oxidant” (The Regents of the University of Michigan, priority 1998, dated 2000).
